# Columns and labels:
# Type in all cases: in vivo
# Hemp Sesbania = experiment: Pre-emergent herbicidal test, Hemp Sesbania; conditions: Table II; note: ranges in brackets are in %
# Source text: (§1) A good grade of top soil is placed in aluminum pans and compacted to a depth of three-eights to one-half inch from the top of the pan. On the top of the soil is placed a number of seeds or vegetative propagules of various plant species. The soil required to level fill the pans after seeding or adding vegetative propagules is weighted into a pan. The soil and a known amount of the active ingredient applied in a solvent or as a wettable powder suspension are thoroughly mixed, and used to cover the prepared pans. After treatment, the pans are moved into a greenhouse bench where they are watered by subirrigation as needed to give adequate moisture for germination and growth.
# (§2) Approximately 2 weeks after seeding and treating, the plants were observed and the results recorded. The herbicidal rating was obtained by means of a fixed scale based on the percent injury of each plant species. The ratings are defined as follows: […]
# (§3) The compounds were further tested by utilizing the above procedure on the following plant species: […]
# Yellow Nutsedge = experiment: Pre-emergent herbicidal test, Yellow Nutsedge; conditions: Table I; note: ranges in brackets are in %
# Source text: as §1, §2
# Wheat = experiment: Pre-emergent herbicidal test, Wheat; conditions: Table II; note: ranges in brackets are in %
# Source text: as §1, §2, §3
# Panicum Spp. = experiment: Pre-emergent herbicidal test, Panicum Spp.; note: ranges in brackets are in %; conditions: Table II
# Source text: as §1, §2, §3
# Wild Buckwheat = experiment: Pre-emergent herbicidal test, Wild Buckwheat; conditions: Table II; note: ranges in brackets are in %
# Source text: as §1, §2, §3
# Johnsongrass = experiment: Pre-emergent herbicidal test, Johnsongrass; conditions: Table I; note: ranges in brackets are in %
# Source text: as §1, §2
# Rice = experiment: Pre-emergent herbicidal test, Rice; conditions: Table II; note: ranges in brackets are in %
# Source text: as §1, §2, §3
# Sorghum = experiment: Pre-emergent herbicidal test, Sorghum; conditions: Table II; note: ranges in brackets are in %
# Source text: as §1, §2, §3
# Crabgrass = experiment: Pre-emergent herbicidal test, Crabgrass; conditions: Table II; note: ranges in brackets are in %
# Source text: as §1, §2, §3
# Cocklebur = experiment: Pre-emergent herbicidal test, Cocklebur; conditions: Table II; note: ranges in brackets are in %
# Source text: as §1, §2
# Soybean = experiment: Pre-emergent herbicidal test, Soybean; conditions: Table II; note: ranges in brackets are in %
# Source text: as §1, §2, §3
# Barnyardgrass = experiment: Pre-emergent herbicidal test, Barnyardgrass; note: ranges in brackets are in %
# Source text: as §1, §2
# Lambsquarters = experiment: Pre-emergent herbicidal test, Lambsquarters; note: ranges in brackets are in %
# Source text: as §1, §2
# Downy Brome = experiment: Pre-emergent herbicidal test, Downy Brome; note: ranges in brackets are in %
# Source text: as §1, §2
# Echinochloa crus-galli = experiment: Upland seeded rice greenhouse test, barnyardgrass; conditions: Upland seeded rice, greenhouse
# Description: (§4) In another comparative test in the greenhouse, the compound of Example 2 and Compound B were tested in Upland seeded rice. […] In contrast, Compound A, (a commercial rice herbicide), required 0.14 kg/ha (0.125 lb/A) to selectively control the same weed with rice safety also maintained at 1.12 kg/ha resulting in a selectivity factor of at least 8, i.e., less than one-half that of the compound of Example 2.
# Upland seeded rice = Upland seeded rice greenhouse test, rice safety; conditions: Upland seeded rice, greenhouse; maximum test rate
# Description: as §4
smiles,measurement,setting,value
"CCCCOc1cccc(CC)c1N(C)C(=O)CCl [Example 1, N-methyl-2'-n-butoxy-6'-ethyl-2-chloroacetanilide]","Rating, Hemp Sesbania",Hemp Sesbania; 0.006 kg/h,2 (50-74)
same,"Rating, Hemp Sesbania",Hemp Sesbania; 0.01 kg/h,2 (50-74)
same,"Rating, Hemp Sesbania",Hemp Sesbania; 0.06 kg/h,3 (75-100)
same,"Rating, Hemp Sesbania",Hemp Sesbania; 0.28 kg/h,3 (75-100)
same,"Rating, Hemp Sesbania",Hemp Sesbania; 1.12 kg/h,3 (75-100)
same,"Rating, Hemp Sesbania",Hemp Sesbania; 5.6 kg/h,3 (75-100)
same,"Rating, Yellow Nutsedge",Yellow Nutsedge; 5.6 kg/h,3 (75-100)
same,"Rating, Yellow Nutsedge",Yellow Nutsedge; 11.2 kg/h,3 (75-100)
same,"Rating, Wheat",Wheat; 0.006 kg/h,0 (0-24)
same,"Rating, Wheat",Wheat; 0.01 kg/h,0 (0-24)
same,"Rating, Wheat",Wheat; 0.06 kg/h,1 (25-49)
same,"Rating, Wheat",Wheat; 0.28 kg/h,2 (50-74)
same,"Rating, Wheat",Wheat; 1.12 kg/h,2 (50-74)
same,"Rating, Wheat",Wheat; 5.6 kg/h,3 (75-100)
same,"Rating, Panicum Spp.",Panicum Spp.; 0.006 kg/h,0 (0-24)
same,"Rating, Panicum Spp.",Panicum Spp.; 0.01 kg/h,1 (25-49)
same,"Rating, Panicum Spp.",Panicum Spp.; 0.06 kg/h,3 (75-100)
same,"Rating, Panicum Spp.",Panicum Spp.; 0.28 kg/h,3 (75-100)
same,"Rating, Panicum Spp.",Panicum Spp.; 1.12 kg/h,3 (75-100)
same,"Rating, Panicum Spp.",Panicum Spp.; 5.6 kg/h,3 (75-100)
same,"Rating, Wild Buckwheat",Wild Buckwheat; 0.006 kg/h,0 (0-24)
same,"Rating, Wild Buckwheat",Wild Buckwheat; 0.01 kg/h,1 (25-49)
same,"Rating, Wild Buckwheat",Wild Buckwheat; 0.06 kg/h,1 (25-49)
same,"Rating, Wild Buckwheat",Wild Buckwheat; 0.28 kg/h,1 (25-49)
same,"Rating, Wild Buckwheat",Wild Buckwheat; 1.12 kg/h,2 (50-74)
same,"Rating, Wild Buckwheat",Wild Buckwheat; 5.6 kg/h,3 (75-100)
same,"Rating, Johnsongrass",Johnsongrass; 5.6 kg/h,3 (75-100)
same,"Rating, Johnsongrass",Johnsongrass; 11.2 kg/h,3 (75-100)
same,"Rating, Rice",Rice; 0.006 kg/h,1 (25-49)
same,"Rating, Rice",Rice; 0.01 kg/h,1 (25-49)
same,"Rating, Rice",Rice; 0.06 kg/h,1 (25-49)
same,"Rating, Rice",Rice; 0.28 kg/h,3 (75-100)
same,"Rating, Rice",Rice; 1.12 kg/h,3 (75-100)
same,"Rating, Rice",Rice; 5.6 kg/h,3 (75-100)
same,"Rating, Sorghum",Sorghum; 0.006 kg/h,0 (0-24)
same,"Rating, Sorghum",Sorghum; 0.01 kg/h,0 (0-24)
same,"Rating, Sorghum",Sorghum; 0.06 kg/h,2 (50-74)
same,"Rating, Sorghum",Sorghum; 0.28 kg/h,3 (75-100)
same,"Rating, Sorghum",Sorghum; 1.12 kg/h,3 (75-100)
same,"Rating, Sorghum",Sorghum; 5.6 kg/h,3 (75-100)
same,"Rating, Crabgrass",Crabgrass; 0.006 kg/h,1 (25-49)
same,"Rating, Crabgrass",Crabgrass; 0.01 kg/h,3 (75-100)
same,"Rating, Crabgrass",Crabgrass; 0.06 kg/h,3 (75-100)
same,"Rating, Crabgrass",Crabgrass; 0.28 kg/h,3 (75-100)
same,"Rating, Crabgrass",Crabgrass; 1.12 kg/h,3 (75-100)
same,"Rating, Crabgrass",Crabgrass; 5.6 kg/h,3 (75-100)
same,"Rating, Cocklebur",Cocklebur; 0.06 kg/h,0 (0-24)
same,"Rating, Cocklebur",Cocklebur; 5.6 kg/h,0 (0-24)
same,"Rating, Soybean",Soybean; 0.006 kg/h,0 (0-24)
same,"Rating, Soybean",Soybean; 0.01 kg/h,0 (0-24)
same,"Rating, Soybean",Soybean; 0.06 kg/h,0 (0-24)
same,"Rating, Soybean",Soybean; 0.28 kg/h,0 (0-24)
same,"Rating, Soybean",Soybean; 1.12 kg/h,0 (0-24)
same,"Rating, Soybean",Soybean; 5.6 kg/h,1 (25-49)
same,"Rating, Barnyardgrass","Barnyardgrass; Table I, 5.6 kg/h",3 (75-100)
same,"Rating, Barnyardgrass","Barnyardgrass; Table I, 11.2 kg/h",3 (75-100)
same,"Rating, Barnyardgrass","Barnyardgrass; Table II, 0.006 kg/h",1 (25-49)
same,"Rating, Barnyardgrass","Barnyardgrass; Table II, 0.01 kg/h",2 (50-74)
same,"Rating, Barnyardgrass","Barnyardgrass; Table II, 0.06 kg/h",3 (75-100)
same,"Rating, Barnyardgrass","Barnyardgrass; Table II, 0.28 kg/h",3 (75-100)
same,"Rating, Barnyardgrass","Barnyardgrass; Table II, 1.12 kg/h",3 (75-100)
same,"Rating, Barnyardgrass","Barnyardgrass; Table II, 5.6 kg/h",3 (75-100)
same,"Rating, Lambsquarters","Lambsquarters; Table I, 5.6 kg/h",3 (75-100)
same,"Rating, Lambsquarters","Lambsquarters; Table I, 11.2 kg/h",3 (75-100)
same,"Rating, Lambsquarters","Lambsquarters; Table II, 0.006 kg/h",0 (0-24)
same,"Rating, Lambsquarters","Lambsquarters; Table II, 0.01 kg/h",0 (0-24)
same,"Rating, Lambsquarters","Lambsquarters; Table II, 0.06 kg/h",0 (0-24)
same,"Rating, Lambsquarters","Lambsquarters; Table II, 0.28 kg/h",2 (50-74)
same,"Rating, Lambsquarters","Lambsquarters; Table II, 1.12 kg/h",3 (75-100)
same,"Rating, Lambsquarters","Lambsquarters; Table II, 5.6 kg/h",3 (75-100)
same,"Rating, Downy Brome","Downy Brome; Table I, 5.6 kg/h",3 (75-100)
same,"Rating, Downy Brome","Downy Brome; Table I, 11.2 kg/h",3 (75-100)
same,"Rating, Downy Brome","Downy Brome; Table II, 0.006 kg/h",0 (0-24)
same,"Rating, Downy Brome","Downy Brome; Table II, 0.01 kg/h",1 (25-49)
same,"Rating, Downy Brome","Downy Brome; Table II, 0.06 kg/h",3 (75-100)
same,"Rating, Downy Brome","Downy Brome; Table II, 0.28 kg/h",3 (75-100)
same,"Rating, Downy Brome","Downy Brome; Table II, 1.12 kg/h",3 (75-100)
same,"Rating, Downy Brome","Downy Brome; Table II, 5.6 kg/h",3 (75-100)
"CCCCOCN(C(=O)CCl)c1c(CC)cccc1CC [Compound A, 2',6'-diethyl-N-(n-butoxymethyl)-2-chloroacetanilide]",rate for selective control of Echinochloa crus-galli,Echinochloa crus-galli,0.14 kg/ha
same,"selectivity factor, Echinochloa crus-galli in Upland seeded rice",Echinochloa crus-galli,at least 8
same,rate at which rice safety is maintained,Upland seeded rice,≥ 1.12 kg/ha

# — US4345938A, “Herbicidal 2-haloacetanilides” (Monsanto Company, priority 1980, dated 1982)
